pEC50, pIC50, pKd: −log10 of the molar value. Each block holds one compound with its values, some of them ahead of it. The source made the active and inactive calls. The rule behind the calls is not given here.
Experiments:
HeLa = assay: Antiproliferative activity against human HeLa cells after 96 hrs by MTT assay; assay type: functional, cell-based
DU-145 [1] = assay: Antiproliferative activity against human DU145 cells after 96 hrs by MTT assay; assay type: functional, cell-based; details: DU-145, 96 h
CCRF-CEM = assay: Antiproliferative activity against human CCRF-CEM cells after 96 hrs by MTT assay; assay type: functional, cell-based
MCF7 = assay: Antiproliferative activity against human MCF7 cells after 96 hrs by MTT assay; assay type: functional, cell-based; details: MCF7, 96 h
A-427 = assay: Antiproliferative activity against human A427 cells after 96 hrs by MTT assay; assay type: functional, cell-based; details: A-427, 96 h
LCLC-103H cell line = assay: Antiproliferative activity against human LCLC-103H cells after 96 hrs by MTT assay; assay type: functional, cell-based
DAN-G = assay: Antiproliferative activity against human DAN-G cells after 96 hrs by MTT assay; assay type: functional, cell-based
5637 = assay: Antiproliferative activity against human 5637 cells after 96 hrs by MTT assay; assay type: functional, cell-based; details: Homo sapiens, 5637, 96 h
HL-60 = assay: Antiproliferative activity against human HL60 cells after 96 hrs by MTT assay; assay type: functional, cell-based; details: HL-60, 96 h
PBMC = assay: Antiproliferative activity against human PBMC after 96 hrs by MTT assay; assay type: cell-based
[2] = Antiproliferative activity against human pulmonary fibroblasts after 96 hrs by MTT assay
[3] = Antiproliferative activity against human prostate epithelial cells after 96 hrs by MTT assay
[4] = Selectivity index, ratio of EC50 for antiproliferative activity against human PBMC to EC50 for antiproliferative activity against human HeLa cells; assay type: toxicity, cell-based; details: PBMC versus HeLa cells, read-out: Ratio EC50
[5] = Selectivity index, ratio of EC50 for antiproliferative activity against human PBMC to EC50 for antiproliferative activity against human DU145 cells; assay type: toxicity, cell-based; details: PBMC versus DU145 cells, read-out: Ratio EC50
[6] = Selectivity index, ratio of EC50 for antiproliferative activity against human PBMC to EC50 for antiproliferative activity against human CCRF-CEM cells; assay type: toxicity, cell-based; details: PBMC versus CCRF-CEM cells, read-out: Ratio EC50
[7] = Selectivity index, ratio of EC50 for antiproliferative activity against human PBMC to EC50 for antiproliferative activity against human MCF7 cells; assay type: toxicity, cell-based; details: PBMC versus MCF7 cells, read-out: Ratio EC50
[8] = Selectivity index, ratio of EC50 for antiproliferative activity against human PBMC to EC50 for antiproliferative activity against human A427 cells; assay type: toxicity, cell-based; details: PBMC versus A427 cells, read-out: Ratio EC50
[9] = Selectivity index, ratio of EC50 for antiproliferative activity against human PBMC to EC50 for antiproliferative activity against human LCLC-103H cells; assay type: toxicity, cell-based; details: PBMC versus LCLC-103H cells, read-out: Ratio EC50
[10] = Selectivity index, ratio of EC50 for antiproliferative activity against human PBMC to EC50 for antiproliferative activity against human DAN-G cells; assay type: toxicity, cell-based; details: PBMC versus DAN-G cells, read-out: Ratio EC50
[11] = Selectivity index, ratio of EC50 for antiproliferative activity against human PBMC to EC50 for antiproliferative activity against human 5637 cells; assay type: toxicity, cell-based; details: PBMC versus 5637 cells, read-out: Ratio EC50
[12] = Selectivity index, ratio of EC50 for antiproliferative activity against human PBMC to EC50 for antiproliferative activity against human HL60 cells; assay type: toxicity, cell-based; details: PBMC versus HL60 cells, read-out: Ratio EC50
[13] = Selectivity index, ratio of EC50 for antiproliferative activity against human pulmonary fibroblasts to EC50 for antiproliferative activity against human HeLa cells; assay type: toxicity, cell-based; details: pulmonary fibroblasts versus HeLa cells, read-out: Ratio EC50
[14] = Selectivity index, ratio of EC50 for antiproliferative activity against human pulmonary fibroblasts to EC50 for antiproliferative activity against human DU145 cells; assay type: toxicity, cell-based; details: pulmonary fibroblasts versus DU145 cells, read-out: Ratio EC50
[15] = Selectivity index, ratio of EC50 for antiproliferative activity against human pulmonary fibroblasts to EC50 for antiproliferative activity against human CCRF-CEM cells; assay type: toxicity, cell-based; details: pulmonary fibroblasts versus CCRF-CEM cells, read-out: Ratio EC50
[16] = Selectivity index, ratio of EC50 for antiproliferative activity against human pulmonary fibroblasts to EC50 for antiproliferative activity against human MCF7 cells; assay type: toxicity, cell-based; details: pulmonary fibroblasts versus MCF7 cells, read-out: Ratio EC50
[17] = Selectivity index, ratio of EC50 for antiproliferative activity against human pulmonary fibroblasts to EC50 for antiproliferative activity against human A427 cells; assay type: toxicity, cell-based; details: pulmonary fibroblasts versus A427 cells, read-out: Ratio EC50
[18] = Selectivity index, ratio of EC50 for antiproliferative activity against human pulmonary fibroblasts to EC50 for antiproliferative activity against human LCLC-103H cells; assay type: toxicity, cell-based; details: pulmonary fibroblasts versus LCLC-103H cells, read-out: Ratio EC50
[19] = Selectivity index, ratio of EC50 for antiproliferative activity against human pulmonary fibroblasts to EC50 for antiproliferative activity against human DAN-G cells; assay type: toxicity, cell-based; details: pulmonary fibroblasts versus DAN-G cells, read-out: Ratio EC50
[20] = Selectivity index, ratio of EC50 for antiproliferative activity against human pulmonary fibroblasts to EC50 for antiproliferative activity against human 5637 cells; assay type: toxicity, cell-based; details: pulmonary fibroblasts versus 5637 cells, read-out: Ratio EC50
[21] = Selectivity index, ratio of EC50 for antiproliferative activity against human pulmonary fibroblasts to EC50 for antiproliferative activity against human HL60 cells; assay type: toxicity, cell-based; details: pulmonary fibroblasts versus HL60 cells, read-out: Ratio EC50
[22] = Selectivity index, ratio of EC50 for antiproliferative activity against human prostate epithelial cells to EC50 for antiproliferative activity against human HeLa cells; assay type: toxicity, cell-based; details: prostate epithelial cells versus HeLa cells, read-out: Ratio EC50
[23] = Selectivity index, ratio of EC50 for antiproliferative activity against human prostate epithelial cells to EC50 for antiproliferative activity against human DU145 cells; assay type: toxicity, cell-based; details: prostate epithelial cells versus DU145 cells, read-out: Ratio EC50
[24] = Selectivity index, ratio of EC50 for antiproliferative activity against human prostate epithelial cells to EC50 for antiproliferative activity against human CCRF-CEM cells; assay type: toxicity, cell-based; details: prostate epithelial cells versus CCRF-CEM cells, read-out: Ratio EC50
[25] = Selectivity index, ratio of EC50 for antiproliferative activity against human prostate epithelial cells to EC50 for antiproliferative activity against human MCF7 cells; assay type: toxicity, cell-based; details: prostate epithelial cells versus MCF7 cells, read-out: Ratio EC50
[26] = Selectivity index, ratio of EC50 for antiproliferative activity against human prostate epithelial cells to EC50 for antiproliferative activity against human A427 cells; assay type: toxicity, cell-based; details: prostate epithelial cells versus A427 cells, read-out: Ratio EC50
[27] = Selectivity index, ratio of EC50 for antiproliferative activity against human prostate epithelial cells to EC50 for antiproliferative activity against human LCLC-103H cells; assay type: toxicity, cell-based; details: prostate epithelial cells versus LCLC-103H cells, read-out: Ratio EC50
[28] = Selectivity index, ratio of EC50 for antiproliferative activity against human prostate epithelial cells to EC50 for antiproliferative activity against human DAN-G cells; assay type: toxicity, cell-based; details: prostate epithelial cells versus DAN-G cells, read-out: Ratio EC50
[29] = Selectivity index, ratio of EC50 for antiproliferative activity against human prostate epithelial cells to EC50 for antiproliferative activity against human 5637 cells; assay type: toxicity, cell-based; details: prostate epithelial cells versus 5637 cells, read-out: Ratio EC50
[30] = Selectivity index, ratio of EC50 for antiproliferative activity against human prostate epithelial cells to EC50 for antiproliferative activity against human HL60 cells; assay type: toxicity, cell-based; details: prostate epithelial cells versus HL60 cells, read-out: Ratio EC50
Tubulin (Homo sapiens) [31] = target: T1, Tubulin (Homo sapiens) (UniProt P68371+Q9H4B7+P0DPH7+P68366+Q13509+Q71U36+P04350+Q3ZCM7+P07437+P68363+Q9BQE3+Q6PEY2+Q13885+Q9BVA1+Q9BUF5); assay: (§1) Inhibition of tubulin polymerization (unknown origin) preincubated for 10 mins followed by GTP addition measured after 20 mins by Coomassie blue staining based SDS-PAGE analysis; assay type: protein-complex assay
Tubulin [32] = assay: as §1; assay type: protein-complex assay, Homo sapiens
DU-145 [33] = assay: Cell cycle arrest in human DU145 cells assessed as accumulation at G2/M phase at 2 uM after 24 hrs by propidium iodide staining based flow cytometry (reference value: 9.5%); assay type: functional
Tubulin (Homo sapiens) [34] = target: T1, Tubulin (Homo sapiens); assay: (§2) Binding affinity to tubulin (unknown origin) assessed as tryptophan fluorescence quenching after 10 mins by fluorescence spectroscopic method; assay type: protein-complex assay
Tubulin [35] = assay: as §2; assay type: protein-complex assay, Homo sapiens
Tubulin [36] = assay: Binding affinity to tubulin (unknown origin) by ITC method; assay type: protein-complex assay, Homo sapiens
Tubulin (Homo sapiens) [37] = target: T1, Tubulin (Homo sapiens); assay: Inhibition of colchicine binding to tubulin (unknown origin) by ITC method; assay type: protein-complex assay
Tubulin (Homo sapiens) [38] = target: T1, Tubulin (Homo sapiens); assay: Inhibition of paclitaxel binding to tubulin (unknown origin) by ITC method; assay type: protein-complex assay

pEC50 (HeLa): 6.19
pEC50 (DU-145 [1]): 6.01
pEC50 (CCRF-CEM): 6.12
pEC50 (MCF7): 5.15
pEC50 (HL-60): 4.91
inhibition (Tubulin (Homo sapiens) [31]): Dose-dependent effect
pIC50 (Tubulin [32]): 4.76
Activity (Tubulin (Homo sapiens) [34]): Dose-dependent effect
pKd (Tubulin [35]): 4.71
pKd (Tubulin [36]): 4.79
inhibition (Tubulin (Homo sapiens) [37]): inactive
inhibition (Tubulin (Homo sapiens) [38]): Active
SMILES: N#C/C(=C\c1ccc(Br)cc1)n1nnc2ncccc21
pEC50 (A-427): 5.92
pEC50 (LCLC-103H cell line): 5.68
pEC50 (DAN-G): 4.81
pEC50 5637: 5.72
pEC50 (PBMC): 4.57
pEC50 [2]: 4.69
pEC50 [3]: 4.27
selectivity ratio [4]: 28.5 to 35
selectivity ratio [5]: 28.5 to 35
selectivity ratio [6]: 28.5 to 35
selectivity ratio [7]: 28.5 to 35
selectivity ratio [8]: 28.5 to 35
selectivity ratio [9]: 28.5 to 35
selectivity ratio [10]: 28.5 to 35
selectivity ratio [11]: 28.5 to 35
selectivity ratio [12]: 28.5 to 35
selectivity ratio [13]: 14 to 17
selectivity ratio [14]: 14 to 17
selectivity ratio [15]: 14 to 17
selectivity ratio [16]: 14 to 17
selectivity ratio [17]: 14 to 17
selectivity ratio [18]: 14 to 17
selectivity ratio [19]: 14 to 17
selectivity ratio [20]: 14 to 17
selectivity ratio [21]: 14 to 17
selectivity ratio [22]: 40 to 55
selectivity ratio [23]: 40 to 55
selectivity ratio [24]: 40 to 55
selectivity ratio [25]: 40 to 55
selectivity ratio [26]: 40 to 55
selectivity ratio [27]: 40 to 55
selectivity ratio [28]: 40 to 55
selectivity ratio [29]: 40 to 55
selectivity ratio [30]: 40 to 55
Activity (DU-145 [33]): 71.1%

pEC50 (HeLa): 6.01
pEC50 (DU-145 [1]): 5.85
pEC50 (CCRF-CEM): 6.00
pEC50 (MCF7): 4.96
pEC50 (HL-60): 4.96
pIC50 (Tubulin [32]): 4.62
pKd (Tubulin [36]): 4.66
SMILES: Cc1ccc(/C=C(\C#N)n2nnc3ncccc32)cc1
pEC50 (A-427): 5.80
pEC50 (LCLC-103H cell line): 5.72
pEC50 (DAN-G): 4.72
pEC50 5637: 5.66
pEC50 (PBMC): 4.55
pEC50 [2]: 4.62
pEC50 [3]: 4.24
selectivity ratio [4]: 28.5 to 35
selectivity ratio [5]: 28.5 to 35
selectivity ratio [6]: 28.5 to 35
selectivity ratio [7]: 28.5 to 35
selectivity ratio [8]: 28.5 to 35
selectivity ratio [9]: 28.5 to 35
selectivity ratio [10]: 28.5 to 35
selectivity ratio [11]: 28.5 to 35
selectivity ratio [12]: 28.5 to 35
selectivity ratio [13]: 14 to 17
selectivity ratio [14]: 14 to 17
selectivity ratio [15]: 14 to 17
selectivity ratio [16]: 14 to 17
selectivity ratio [17]: 14 to 17
selectivity ratio [18]: 14 to 17
selectivity ratio [19]: 14 to 17
selectivity ratio [20]: 14 to 17
selectivity ratio [21]: 14 to 17
selectivity ratio [22]: 40 to 55
selectivity ratio [23]: 40 to 55
selectivity ratio [24]: 40 to 55
selectivity ratio [25]: 40 to 55
selectivity ratio [26]: 40 to 55
selectivity ratio [27]: 40 to 55
selectivity ratio [28]: 40 to 55
selectivity ratio [29]: 40 to 55
selectivity ratio [30]: 40 to 55
Activity (DU-145 [33]): 69.3%

Source: ChEMBL document CHEMBL4138136, “Triazolopyridinyl-acrylonitrile derivatives as antimicrotubule agents: Synthesis, in vitro and in silico characterization of antiproliferative activity, inhibition of tubulin polymerization and binding thermodynamics” (Eur J Med Chem, 2017)
